Where two headings read alike, the source gives them in different places. No end group written: not given here.
What was measured:
[1] = tested on: voltage-gated ion channels (VGICs); settings: cited from earlier work; for inhibition of Nav and Cav channels (in words): Chuang et al., Yamamoto and Sakashita, Middleton et al., Sidach and Mintz, Xiao et al., 2005
[2] = tested on: HVA I Ca in small-diameter IB4 ^− DRG neurons; assay: cells
Procedure: Spinal level L3–L5 DRG were removed and placed in ice-cold HEPES-buffered saline (HBS) composed of (in mM): 154 NaCl, 2.5 KCl, 1.8 CaCl2, 1.5 MgCl2, 10 HEPES, and 10 glucose (pH 7.4, 330 ± 5 mOsm). Iridectomy scissors were utilized to cut up ganglia before incubation at 37°C for 15 min in oxygenated HBS containing 5 mg ml^−1 collagenase type 2 (Worthington Biochemical Corp, Lakewood, NJ, United States) followed by 25 min in oxygenated HBS containing 1 mg ml^−1 papain (Worthington Biochemical Corp). […] After enzyme treatment, ganglia were placed in 3 ml of HBS following two room temperature HBS washes. Ganglia were then triturated through fire-polished Pasteur pipettes with decreasing bores to extract cells. Finally, the cells mixed in HBS were plated onto surface modified culture dishes (Corning Primaria™ easy grip). […] DRG cells were pre-treated with 1 μg ml^−1 Alexa Fluor 488-conjugated Bandeiraea simplicifolia IB4 (Invitrogen) for 5 min at room temperature and washed with HBS for 5 min before fluorescence was examined on the inverted microscope (Olympus, IX50) used for patch clamp recordings.
Cell size was determined from an eyepiece graticule. Whole-cell electrophysiology was conducted at room temperature (22–24°C) in culture dishes perfused with room temperature HBS. The intracellular pipette solution contained (mM): 120 CsCl, 10 HEPES, 10 EGTA, 2 CaCl2, 5 MgATP, 5 Na2GTP, 5 NaCl; pH 7.3 (CsOH); 285 ± 5 mos mol l^−1.
An EPC-9 patch-clamp amplifier and corresponding PULSE software from HEKA Electronik (Lambrecht/Pfalz, Germany) were used to make recordings. Currents were sampled at 50 kHz and recorded on a hard disk. Borosilicate glass from AM Systems, Everett, WA, United States were used for patch pipettes. The input resistance of the pipettes ranged from 2 to 4 MΩ. […] A built-in procedure of the HEKA amplifier compensated for the capacitive transient currents. A −P/6 protocol was utilized to subtract leak current online. I Ca was generated with the recording protocol which included a depolarization from a holding potential of −80 mV to 0 mV for 10 ms every 30 s. I Na was generated through a recording protocol which included a step depolarization from a holding potential of −80 mV to 0 mV for 10 ms at a frequency of 0.1 Hz. Cells were perfused with the test compound via a pressure driven perfusion system (AutoMate Scientific, United States).
All data analysis and graphs were generated in OriginPro (Origin Lab Corporation, United States). […] Activation and SSI curves were fit by the modified Boltzmann equation: I or G=1/(1+exp(Vm−V0.5/ka)) Where I is the current or G is the conductance, Vm is the pre-pulse potential, V 0.5 is the half-maximal activation potential and ka is the slope factor.
Statistical significance (p < 0.05) was determined using unpaired Student’s t-test or 1-way ANOVA followed by a Tukey multiple comparison. All data is presented as mean ± SEM (n), where n is individual cells.

animal pain models = settings: cited from earlier work
Text: […]. Nav channels are structurally related to voltage-gated calcium (Cav) channels, Cav1 and Cav2. […] […].

Nav1.7 = settings: cited from earlier work
Text: Loss-of-function mutation of the SCN9A gene that codes for Nav1.7 leads to congenital insensitivity to pain ([Cox et al., 2006]), whereas SCN9A gain-of-function mutations causes paroxysmal extreme pain disorder and primary erythromelalgia ([Dib-Hajj et al., 2008]). […] Homology of VGIC voltage sensing domains, and particularly those of Nav channels, is at the crux of the development of genuinely selective Nav1.7 modulators ([Kingwell, 2019]). Given the VSD functional importance in neuronal VGICs and their structural homology, it is not surprising that VDPs target related channel families. […] Mammalian Nav and Cav α-subunits are structurally homologous but differ in their gating mechanisms ([Kubota et al., 2017]).

Nav1.2 and Nav1.5 = settings: ref Chuang et al., 1998, Olamendi-Portugal et al., 2002, Sidach and Mintz; cited from earlier work
Text: (§1) Mammalian Nav and Cav α-subunits are structurally homologous but differ in their gating mechanisms ([Kubota et al., 2017]).

P-type calcium channels = settings: ref Chuang et al., 1998, Olamendi-Portugal et al., 2002, Sidach and Mintz; cited from earlier work
Text: as §1

N-type Cav channel = settings: ref Chuang et al., 1998, Olamendi-Portugal et al., 2002, Sidach and Mintz; cited from earlier work
Text: as §1

[3] = tested on: T-type and L-type Cav channels; settings: ref Chuang et al., 1998, Olamendi-Portugal et al., 2002, Sidach and Mintz; cited from earlier work
Text: as §1

[4] = ref Kuenzi and Dale, 1996, Caterina et al., 1997, McArthur et al., 2019
[5] = ref Swartz and MacKinnon, 1995, 1998, Li-Smerin and Swartz, 2002, Bosmans et al., 2008, Bladen et al., 2014

Molecule: Oc1cc2c(cc1O)CN(C(=S)NCCc1ccc(Cl)cc1)CCC2 [capsazepine]
- channel families acted on [1, 4]: TRPV1/Kv/Cav

Molecule: Hanatoxin
- inhibition of Nav and Cav channels (in words) [1, 5]: inhibit both Nav and Cav channels
- channel families acted on ([1]; ref Swartz and MacKinnon, 1995, Li-Smerin and Swartz, 1998, Bosmans et al., 2008): Kv/Nav/Cav

Molecule: [D-Ala^2, N-MePhe^4, Gly-ol]-Enkephalin [DAMGO, reference compound]
- inhibition of HVA I Ca ([2]; 100 nM DAMGO applied alone, small IB4− rat DRG neurons, mean ± SEM, n = 6): 6.49 ± 1.07%
- antinociceptive effect in the presence of Cav1 and Cav2.2 channel inhibitors (in words) (animal pain models; ref Contreras et al., 1988, Barro et al., 1995): enhanced

Molecule: ProTxI: voltage-sensing domain (VSD) gating modifier toxin (ECRYWLGGCSAGQTCCKHLVCSRRHGWCVWDGTFS; ends and bridges not checked; cysteine pairing not given here; UniProt P83480 1-35, looked up)
- channel families acted on ([1]; ref Middleton et al., 2002, Bosmans et al., 2008, Bladen et al., 2014, Gui et al.): Nav/Kv/Cav/TRPA1
- inhibition of Nav and Cav channels (in words) [1, 5]: inhibit both Nav and Cav channels

Molecule: COc1cc(CNC(=O)CCCC/C=C/C(C)C)ccc1O [capsaicin]
- channel families acted on [1, 4]: TRPV1/Kv/Cav

Molecule: NC1=N[C@H](O)[C@H]2[C@H]3O[C@]4(O)O[C@@H]([C@@H](O)[C@@]2(N1)[C@@H]4O)[C@]3(O)CO [tetrodotoxin]
- channel families acted on [1]: Nav/Cav

Molecule: CN1CC[C@]23c4c5ccc(O)c4O[C@H]2[C@@H](O)C=C[C@H]3[C@H]1C5 [morphine]
- antinociceptive effect in the presence of Cav1 and Cav2.2 channel inhibitors (in words) (animal pain models; in vivo): enhanced

Molecule: Cn1nccc1-c1ccccc1Oc1ccc(S(=O)(=O)Nc2nccs2)cc1C#N [PF-04856264]
- effect in rodent models of acute nociception or inflammatory pain (in words) (animal pain models; small molecule, ref Deuis et al., 2017): ineffective

Molecule: COc1ccc2c3c1O[C@H]1C(=O)CC[C@@]4(O)[C@@H](C2)N(C)CC[C@]314 [oxycodone, reference compound]
- effect on Nav1.7 currents (in words) (Nav1.7; opioid receptor modulators, ref Mueller et al., 2019): did not alter Nav1.7 currents

Molecule: ProTxII
- channel families acted on ([1]; ref Middleton et al., 2002, Bladen et al., 2014): Nav/Cav
- inhibition of Nav and Cav channels (in words) [1, 5]: inhibit both Nav and Cav channels
- effect in rodent models of acute nociception or inflammatory pain (in words) (animal pain models; ref Schmalhofer et al., 2008): ineffective

Molecule: C=CCN1CC[C@]23c4c5ccc(O)c4O[C@H]2C(=O)CC[C@@]3(O)[C@H]1C5 [naloxone, reference compound]
- inhibition at 1 µM ([2]; Rattus norvegicus, DRG neuron, read-out: inhibition of I Ca): 1.68 ± 0.61%
- effect on Nav1.7 currents (in words) (Nav1.7): did not alter Nav1.7 currents

B1: Kurtoxin: scorpion peptide, gating modifier toxin (peptide, UniProt P58910 1-63, looked up)
Kurtoxin: KIDGYPVDYWNCKRICWYNNKYCNDLCKGLKADSGYCWGWTLSCYCQGLPDNARIKRSGRCRA
modifications: ends and bridges not checked
- channel families acted on ([1]; ref Chuang et al., 1998): Nav/Cav
- inhibition of Nav and Cav channels (in words) [1, 5]: inhibit both Nav and Cav channels
- effect on inactivation of Nav1.2 and Nav1.5 (in words) (Nav1.2 and Nav1.5): slows inactivation
- effect on deactivation (in words) (P-type calcium channels): slows deactivation
- effect on N-type Cav channel kinetics (in words) (N-type Cav channel): little to no alteration
- effect on deactivation (in words) [3]: accelerates deactivation

Source: publication PMC7875911 (Frontiers in Pharmacology, 2021)
